The values below come from patent US11634488B2, “Treatment of B cell malignancies using afucosylated pro-apoptotic anti-CD19 antibodies in combination with anti CD20 antibodies or chemotherapeutics” (INTERNATIONAL—DRUG—DEVELOPMENT—BIOTECH, priority 2017, dated 2023).

The assay concerns Human follicular cell line RL. The assay is described as follows: CDX model for FL: RL cells subcutaneously in SCID mice. Type of assay: in vivo. The conditions noted are these: RL xenograft in SCID mice. As for the experimental part: Human follicular cell line RL was subcutaneously injected in SCID mice, with a concentration of 5.10^6 cells per injection (200 μL). Mice were randomized when the tumors reached a mean volume of about 100 mm^3 for the 9 groups (total 45 mice). […] The endpoint was defined by animal ethics as a tumor diameter of >18 mm, significant weight loss or alteration of animal well-being. In order to assess the effectiveness of the compounds on tumorigenesis, tumor volume was measured two times a week. The sizes of the primary tumors were measured using calipers and the tumor volume (TV) was extrapolated to a sphere using the formula TV=4/3 […]×r^3, by calculating the mean radius from the two measurements. The median and standard deviation were also calculated for each group. Median is preferred to mean in order to exclude the extreme values. MAb treatment was administered by intraperitoneal injection twice a week during three weeks at 30, 10 or 1 mg/kg doses. The product was prepared in accordance with the sponsor's guidelines, i.e. diluted in PBS. Mice were sacrificed when the tumors reached a maximum volume of 1600 mm^3. The endpoints were defined by […] as a tumor diameter of >18 mm or weight loss of >10% of body weight, or when the tumors are dangerous for mice (necrosis). Statistical analysis was performed with GraphPad Prism software. GraphPad Prism combined scientific graphing, comprehensive curve fitting, understandable statistics, and data organization. The t-test (two-tailed test) was performed on the tumor volume values (mm^3) measured on the day of sacrifice.

Setting [1] is: Day 55, 1 mg/kg each MAb, percentage of mice.

As to rituximab, the “mice in complete remission” value (1 mg/kg, day 45) is listed as 33%. Moreover, under setting [1], the “Complete Remission” value turned out to be 33 and the Tumor progression was found to be 67.
